Earlier results, collected in PubChem BioAssay AID1259409 (Chemical Carcinogenesis Research Information System (CCRIS), 2018).
Values joined by “and” are separate entries in the source; they are usually repeats but may differ in a detail not shown here. Equal entries are not always repeated.

Test system: rodent chemically induced tumor inhibition, incidence and multiplicity
Test: CCRIS tumor inhibitor studies
Settings: Route [Inhibitor]: ORAL, Species: RAT

For `O=C(O)c1ccc(O)c(O)c1`, the “tumour outcome (control, treated, inhibition, significance)” value (Carcinogen: 2-AMINO-1-METHYL-6-PHENYLIMIDAZO[4,5-B]PYRIDINE [105650-23-5], Dose [Inhibitor]: 2,000 PPM IN DIET FOR 4 WK BEGINNING WK PRIOR TO FIRST CARCINOGEN DOSE (STUDY DURATION: 25 WK), Strain/Sex: SPRAGUE-DAWLEY/FEMALE, Target Tissue: Type of Lesion: MAMMARY GLAND: FIBROADENOMA OR DUCTAL CARCINOMA, Dose [Carcinogen]: 85 MG/KG BW 2X/WK FOR 4 WK (STUDY DURATION: 25 WK), Promoter: NONE) is given as 63%, 59%, 6%, not significant, the “tumour outcome (control, treated, inhibition, significance)” value (Carcinogen: 4-NITROQUINOLINE-1-OXIDE, 56-57-5, Dose [Inhibitor]: 0, 500 PPM IN DIET FOR 10 WK BEGINNING 1 WK PRIOR TO CARCINOGEN TREATMENT (STUDY DURATION: 32 WK), Strain/Sex: F344/MALE, Target Tissue: Type of Lesion: TONGUE: PAPILLOMA, Dose [Carcinogen]: 20 PPM IN DRINKING WATER FOR 8 WK, Promoter: NONE USED) is given as 3/19 (16%), 3/20 (15%), 6%, not significant and 16%, 15%, 6%, not significant and the “tumour outcome (control, treated, inhibition, significance)” value (Carcinogen: 4-NITROQUINOLINE-1-OXIDE, 56-57-5, Dose [Inhibitor]: 0, 500 PPM IN DIET FOR 22 WK BEGINNING 1 WK POST CARCINOGEN TREATMENT (STUDY DURATION: 32 WK), Strain/Sex: F344/MALE, Target Tissue: Type of Lesion: TONGUE: PAPILLOMA, Dose [Carcinogen]: 20 PPM IN DRINKING WATER FOR 8 WK, Promoter: NONE USED) is given as 3/19 (16%), 3/21 (14%), 13%, not significant and 16%, 14%, 13%, not significant. The “tumour outcome (control, treated, inhibition, significance)” value (Carcinogen: 4-NITROQUINOLINE-1-OXIDE, 56-57-5, Dose [Inhibitor]: 0, 1000 PPM IN DIET FOR 10 WK BEGINNING 1 WK PRIOR TO CARCINOGEN TREATMENT (STUDY DURATION: 32 WK), Strain/Sex: F344/MALE, Target Tissue: Type of Lesion: TONGUE: PAPILLOMA, Dose [Carcinogen]: 20 PPM IN DRINKING WATER FOR 8 WK, Promoter: NONE USED) was 3/19 (16%), 2/19 (11%), 31%, not significant and 16%, 11%, 31%, not significant, the “tumour outcome (control, treated, inhibition, significance)” value (Carcinogen: 4-NITROQUINOLINE-1-OXIDE, 56-57-5, Dose [Inhibitor]: 0, 1000 PPM IN DIET FOR 22 WK BEGINNING 1 WK POST CARCINOGEN TREATMENT (STUDY DURATION: 32 WK), Strain/Sex: F344/MALE, Target Tissue: Type of Lesion: TONGUE: PAPILLOMA, Dose [Carcinogen]: 20 PPM IN DRINKING WATER FOR 8 WK, Promoter: NONE USED) was 3/19 (16%), 4/19 (21%), -31%, not significant and the “tumour outcome (control, treated, inhibition, significance)” value (Carcinogen: 4-NITROQUINOLINE-1-OXIDE, 56-57-5, Dose [Inhibitor]: 0, 2000 PPM IN DIET FOR 10 WK BEGINNING 1 WK PRIOR TO CARCINOGEN TREATMENT (STUDY DURATION: 32 WK), Strain/Sex: F344/MALE, Target Tissue: Type of Lesion: TONGUE: PAPILLOMA, Dose [Carcinogen]: 20 PPM IN DRINKING WATER FOR 8 WK, Promoter: NONE USED) was 3/19 (16%), 2/21 (10%), 38%, not significant and 16%, 10%, 38%, not significant. For the same compound, the “tumour outcome (control, treated, inhibition, significance)” value (Carcinogen: 4-NITROQUINOLINE-1-OXIDE, 56-57-5, Dose [Inhibitor]: 0, 2000 PPM IN DIET FOR 22 WK BEGINNING 1 WK POST CARCINOGEN TREATMENT (STUDY DURATION: 32 WK), Strain/Sex: F344/MALE, Target Tissue: Type of Lesion: TONGUE: PAPILLOMA, Dose [Carcinogen]: 20 PPM IN DRINKING WATER FOR 8 WK, Promoter: NONE USED) was 3/19 (16%), 2/20 (10%), 38%, not significant and 16%, 10%, 38%, not significant, the “tumour outcome (control, treated, inhibition, significance)” value (Carcinogen: AZOXYMETHANE, 24843-45-2, Dose [Inhibitor]: 0, 500 PPM IN DIET FOR 28 WK BEGINNING 1 WK POST CARCINOGEN TREATMENT (STUDY DURATION: 32 WK), Strain/Sex: F344/MALE, Target Tissue: Type of Lesion: COLON: ADENOMA, Dose [Carcinogen]: 15 MG/KG BW 1/WK FOR 3 WK, Promoter: NONE USED) was 10%, 15%, -50%, not significant and the “tumour outcome (control, treated, inhibition, significance)” value (Carcinogen: AZOXYMETHANE, 25843-45-2, Dose [Inhibitor]: 0, 250 PPM IN DIET FOR 4 WK BEGINNING 1 WK PRIOR TO CARCINOGEN TREATMENT (STUDY DURATION: 32 WK), Strain/Sex: F344/MALE, Target Tissue: Type of Lesion: COLON: ADENOCARCINOMA, Dose [Carcinogen]: 15 MG/KG BW 1/WK FOR 3 WK, Promoter: NONE USED) was 75%, 40%, 47%, not significant. The “tumour outcome (control, treated, inhibition, significance)” value (Carcinogen: AZOXYMETHANE, 25843-45-2, Dose [Inhibitor]: 0, 250 PPM IN DIET FOR 4 WK BEGINNING 1 WK PRIOR TO CARCINOGEN TREATMENT (STUDY DURATION: 32 WK), Strain/Sex: F344/MALE, Target Tissue: Type of Lesion: COLON: ADENOMA, Dose [Carcinogen]: 15 MG/KG BW 1/WK FOR 3 WK, Promoter: NONE USED) was 10%, 5%, 50%, not significant, the “tumour outcome (control, treated, inhibition, significance)” value (Carcinogen: AZOXYMETHANE, 25843-45-2, Dose [Inhibitor]: 0, 250 PPM IN DIET FOR 4 WK BEGINNING 1 WK PRIOR TO CARCINOGEN TREATMENT (STUDY DURATION: 32 WK), Strain/Sex: F344/MALE, Target Tissue: Type of Lesion: LARGE INTESTINE: ADENOCARCINOMA, Dose [Carcinogen]: 15 MG/KG BW 1/WK FOR 3 WK, Promoter: NONE USED) was 15/20 (75%), 8/20 (40%), 47%, not significant and the “tumour outcome (control, treated, inhibition, significance)” value (Carcinogen: AZOXYMETHANE, 25843-45-2, Dose [Inhibitor]: 0, 250 PPM IN DIET FOR 4 WK BEGINNING 1 WK PRIOR TO CARCINOGEN TREATMENT (STUDY DURATION: 32 WK), Strain/Sex: F344/MALE, Target Tissue: Type of Lesion: LARGE INTESTINE: ADENOMA, Dose [Carcinogen]: 15 MG/KG BW 1/WK FOR 3 WK, Promoter: NONE USED) was 2/20 (10%), 1/20 (5%), 50%, not significant. The “tumour outcome (control, treated, inhibition, significance)” value (Carcinogen: AZOXYMETHANE, 25843-45-2, Dose [Inhibitor]: 0, 250 PPM IN DIET FOR 4 WK BEGINNING 1 WK PRIOR TO CARCINOGEN TREATMENT (STUDY DURATION: 32 WK), Strain/Sex: F344/MALE, Target Tissue: Type of Lesion: SMALL INTESTINE: ADENOCARCINOMA, Dose [Carcinogen]: 15 MG/KG BW 1/WK FOR 3 WK, Promoter: NONE USED) was 6/20 (30%), 7/20 (35%), -17%, not significant, the “tumour outcome (control, treated, inhibition, significance)” value (Carcinogen: AZOXYMETHANE, 25843-45-2, Dose [Inhibitor]: 0, 250 PPM IN DIET FOR 4 WK BEGINNING 1 WK PRIOR TO CARCINOGEN TREATMENT (STUDY DURATION: 32 WK), Strain/Sex: F344/MALE, Target Tissue: Type of Lesion: SMALL INTESTINE: ADENOMA, Dose [Carcinogen]: 15 MG/KG BW 1/WK FOR 3 WK, Promoter: NONE USED) was 1/20 (5%), 0/20 (0%), 100%, not significant and the “tumour outcome (control, treated, inhibition, significance)” value (Carcinogen: AZOXYMETHANE, 25843-45-2, Dose [Inhibitor]: 0, 250 PPM IN DIET FOR 28 WK BEGINNING 1 WK POST CARCINOGEN TREATMENT (STUDY DURATION: 32 WK), Strain/Sex: F344/MALE, Target Tissue: Type of Lesion: COLON: ADENOCARCINOMA, Dose [Carcinogen]: 15 MG/KG BW 1/WK FOR 3 WK, Promoter: NONE USED) was 75%, 40%, 47%, not significant. For the same compound, the “tumour outcome (control, treated, inhibition, significance)” value (Carcinogen: AZOXYMETHANE, 25843-45-2, Dose [Inhibitor]: 0, 250 PPM IN DIET FOR 28 WK BEGINNING 1 WK POST CARCINOGEN TREATMENT (STUDY DURATION: 32 WK), Strain/Sex: F344/MALE, Target Tissue: Type of Lesion: COLON: ADENOMA, Dose [Carcinogen]: 15 MG/KG BW 1/WK FOR 3 WK, Promoter: NONE USED) was 10%, 20%, -100%, not significant, the “tumour outcome (control, treated, inhibition, significance)” value (Carcinogen: AZOXYMETHANE, 25843-45-2, Dose [Inhibitor]: 0, 250 PPM IN DIET FOR 28 WK BEGINNING 1 WK POST CARCINOGEN TREATMENT (STUDY DURATION: 32 WK), Strain/Sex: F344/MALE, Target Tissue: Type of Lesion: LARGE INTESTINE: ADENOCARCINOMA, Dose [Carcinogen]: 15 MG/KG BW 1/WK FOR 3 WK, Promoter: NONE USED) was 15/20 (75%), 8/20 (40%), 47%, not significant and the “tumour outcome (control, treated, inhibition, significance)” value (Carcinogen: AZOXYMETHANE, 25843-45-2, Dose [Inhibitor]: 0, 250 PPM IN DIET FOR 28 WK BEGINNING 1 WK POST CARCINOGEN TREATMENT (STUDY DURATION: 32 WK), Strain/Sex: F344/MALE, Target Tissue: Type of Lesion: LARGE INTESTINE: ADENOMA, Dose [Carcinogen]: 15 MG/KG BW 1/WK FOR 3 WK, Promoter: NONE USED) was 2/20 (10%), 4/20 (20%), -100%, not significant. For the same compound, the “tumour outcome (control, treated, inhibition, significance)” value (Carcinogen: AZOXYMETHANE, 25843-45-2, Dose [Inhibitor]: 0, 250 PPM IN DIET FOR 28 WK BEGINNING 1 WK POST CARCINOGEN TREATMENT (STUDY DURATION: 32 WK), Strain/Sex: F344/MALE, Target Tissue: Type of Lesion: SMALL INTESTINE: ADENOCARCINOMA, Dose [Carcinogen]: 15 MG/KG BW 1/WK FOR 3 WK, Promoter: NONE USED) was 6/20 (30%), 5/20 (25%), 17%, not significant and the “tumour outcome (control, treated, inhibition, significance)” value (Carcinogen: AZOXYMETHANE, 25843-45-2, Dose [Inhibitor]: 0, 250 PPM IN DIET FOR 28 WK BEGINNING 1 WK POST CARCINOGEN TREATMENT (STUDY DURATION: 32 WK), Strain/Sex: F344/MALE, Target Tissue: Type of Lesion: SMALL INTESTINE: ADENOMA, Dose [Carcinogen]: 15 MG/KG BW 1/WK FOR 3 WK, Promoter: NONE USED) was 1/20 (5%), 0/20 (0%), 100%, not significant.
